These are literature values, as cited in patent publication US20250031692A1, “HIGH LOAD SUSPENSION CONCENTRATE COMPOSITIONS” (ADAMA AGAN LTD., priority 2021, published 2025).

For data set [1], the system named is grass and broadleaf weeds. Conditions: at lower application rates compared with other commercial herbicides.
Data set [2] deals with T1, recombinant Fatty Acid Elongation 1 (FAE1) of Arabidopsis (Arabidopsis thaliana, UniProt Q38860).
T1 sequence (Q38860 1-506): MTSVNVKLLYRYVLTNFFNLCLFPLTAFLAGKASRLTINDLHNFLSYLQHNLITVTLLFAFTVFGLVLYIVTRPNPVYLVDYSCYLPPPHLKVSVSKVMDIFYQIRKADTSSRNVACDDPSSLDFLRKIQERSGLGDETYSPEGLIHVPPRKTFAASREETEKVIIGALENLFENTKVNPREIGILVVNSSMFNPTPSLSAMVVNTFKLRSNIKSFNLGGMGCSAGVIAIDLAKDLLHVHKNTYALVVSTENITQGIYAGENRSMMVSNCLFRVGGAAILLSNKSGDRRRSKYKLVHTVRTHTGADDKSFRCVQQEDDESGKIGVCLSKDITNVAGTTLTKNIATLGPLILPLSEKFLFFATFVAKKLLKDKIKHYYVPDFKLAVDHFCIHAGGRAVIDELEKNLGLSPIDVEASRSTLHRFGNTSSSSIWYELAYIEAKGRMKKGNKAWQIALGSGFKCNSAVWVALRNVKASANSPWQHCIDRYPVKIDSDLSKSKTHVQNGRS

Data set [3] deals with VLCFAE activity of the microsomal fraction of etiolated barnyard millet seedlings.
Data set [4] concerns Echinochloa spp. and other annual weeds. The conditions noted are these: 150-200 g a.i./ha; long residual activity.

In the case of `Cn1nc(C(F)(F)F)c(CS(=O)(=O)C2=NOC(C)(C)C2)c1OC(F)F` [Pyroxasulfone], the herbicidal activity entry in data set [1] is “excellent herbicidal activity”.

On to `CCOc1cc(Cl)c(CS(=O)(=O)C2=NOC(C)(C)C2)cc1Cl` [Fenoxasulfone, 3-[(2,5-dichloro-4-ethoxyphenyl)methylsulfonyl]-5,5-dimethyl-4H-1,2-oxazole], for which the figures for the “inhibition of VLCFAE activity” value in data set [2] and in data set [3] were “inhibited by fenoxasulfone in a time-dependent manner” and “inhibited by fenoxasulfone in a time-independent manner”, respectively. Also, in data set [4], the herbicidal activity entry is “excellent herbicidal activity”.
